Data from patent publication US7176281B2 (priority 2003, dated 2007).
Where a SMILES comes first, the peptide text is derived from it. Where no end group is shown, it is not given here.

Tests used:
sPLA2 [1] = settings: known selective sPLA2 inhibitor; cited from earlier work
sPLA2 [2] = experiment: Inhibition of sPLA2 activity at fixed concentrations; type: biochemical
[3] = biological target: T1, serum group IIA secretory phospholipase A2 (Homo sapiens, UniProt P14555); settings: patients with severe sepsis; cited from earlier work
T1 construct: host or cells: patients' serum
T1 sequence (P14555 21-144): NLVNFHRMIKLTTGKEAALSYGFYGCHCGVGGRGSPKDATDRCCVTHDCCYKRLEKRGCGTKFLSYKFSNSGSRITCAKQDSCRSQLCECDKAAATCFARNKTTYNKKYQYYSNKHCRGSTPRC

[4] = biological target: snake venom PLA2 (crotoxin B) (Crotalus durissus terrificus, UniProt P0CAS2); experiment: biochemical
[5] = biological target: T2, 100-kDa human recombinant cytosolic form of PLA2 (cPLA2) (Homo sapiens, UniProt P47712); experiment: PLA2 inhibition, E. coli membrane assay, cPLA2; type: biochemical; settings: human recombinant cPLA2; read-out: IC50 (mean±SD; n=3)
T2 sequence (P47712 1-749): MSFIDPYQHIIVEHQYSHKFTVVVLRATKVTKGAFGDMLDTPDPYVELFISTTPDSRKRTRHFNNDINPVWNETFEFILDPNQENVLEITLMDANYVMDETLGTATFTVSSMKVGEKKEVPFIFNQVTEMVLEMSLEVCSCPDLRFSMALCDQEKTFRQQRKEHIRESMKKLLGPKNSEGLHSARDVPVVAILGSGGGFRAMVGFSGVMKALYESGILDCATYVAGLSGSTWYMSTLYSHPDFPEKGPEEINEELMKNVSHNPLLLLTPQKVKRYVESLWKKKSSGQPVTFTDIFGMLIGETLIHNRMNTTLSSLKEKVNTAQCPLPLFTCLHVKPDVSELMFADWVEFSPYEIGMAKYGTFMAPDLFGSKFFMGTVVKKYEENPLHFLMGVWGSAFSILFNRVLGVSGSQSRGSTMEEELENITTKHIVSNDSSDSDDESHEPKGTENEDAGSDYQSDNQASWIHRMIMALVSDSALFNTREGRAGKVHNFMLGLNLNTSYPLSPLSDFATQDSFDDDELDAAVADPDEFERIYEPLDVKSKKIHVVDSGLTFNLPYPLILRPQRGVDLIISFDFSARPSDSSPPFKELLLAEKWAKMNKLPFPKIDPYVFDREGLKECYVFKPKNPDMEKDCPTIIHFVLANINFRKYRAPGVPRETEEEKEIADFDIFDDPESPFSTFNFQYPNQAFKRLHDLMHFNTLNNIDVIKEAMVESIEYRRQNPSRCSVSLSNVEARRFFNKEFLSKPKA

[6] = biological target: T3, Group IIA purified human synovial sPLA2 (Homo sapiens, UniProt P14555); experiment: In vitro inhibition of purified human synovial sPLA2, 3H-labelled E. coli membranes; type: biochemical; settings: 3H-labelled E. coli membranes as substrate
T3 construct: purchased Cayman, USA
T3 sequence (P14555 21-144): T1 sequence (P14555 21-144)

[7] = biological target: T4, arthritis synovial fluid (human type IIA sPLA2) (Homo sapiens, UniProt P14555); experiment: PLA2 inhibition, E. coli membrane assay, arthritis synovial fluid sPLA2; type: biochemical; settings: read-out: IC50 (mean±SD; n=3)
T4 construct: arthritis synovial fluid (human type IIA sPLA2); from tissue; host or cells: human arthritis synovial fluid
T4 sequence (P14555 21-144): T1 sequence (P14555 21-144)

β-bungarotoxin (Group I) = β-bungarotoxin (Group I) (Bungarus multicinctus, UniProt P00617)
[8] = biological target: bee (Apis mellifera) venom PLA2 (Group III) (Apis mellifera, UniProt P00630)
crotoxin B (Group IIA) = crotoxin B (Group IIA) (Crotalus durissus terrificus, UniProt P0CAS2)
human recombinant cPLA2 = biological target: T5, human recombinant cPLA2 (Homo sapiens, UniProt P47712); type: binding
T5 sequence (P47712 1-749): T2 sequence (P47712 1-749)

Sequence of snake venom PLA2 (crotoxin B) (P0CAS2 whole entry, looked up): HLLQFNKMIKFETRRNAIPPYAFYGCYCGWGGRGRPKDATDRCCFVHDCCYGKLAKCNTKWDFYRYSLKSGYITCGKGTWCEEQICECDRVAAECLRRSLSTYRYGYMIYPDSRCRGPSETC

Compound: CC(=O)O[C@@H]1C[C@@H]2[C@@]3(C)CCCC(C)(C)[C@@H]3CC[C@@]2(C)[C@@H]2CC=C(C=O)[C@H](C=O)[C@@]12C [12-epi-scalaradial]
- IC50 (sPLA2 [1]): 5.4 µM
- inhibition of sPLA2 activity (sPLA2 [2]; 10 μM): 75%
- inhibition of sPLA2 activity (sPLA2 [2]; 20 μM): 95%

Compound: CCc1c(C(=O)C(N)=O)c2c(OCC(=O)O)cccc2n1Cc1ccccc1 [LY315920]
- serum group IIA secretory phospholipase A2 enzyme activity [3]: inhibit

Compound: CC[C@H](C)[C@H](NC(=O)[C@H](Cc1ccc(O)cc1)NC(=O)[C@@H](NC(=O)CNC(=O)[C@H](CC(=O)O)NC(=O)[C@H](Cc1c[nH]c2ccccc12)NC(=O)[C@@H](NC(=O)[C@H](Cc1cnc[nH]1)NC(=O)[C@@H](NC(=O)[C@H](CC(=O)O)NC(=O)[C@@H](NC(=O)[C@H](CCCNC(=N)N)NC(=O)CNC(=O)[C@@H](N)CC(C)C)C(C)C)[C@@H](C)CC)C(C)C)C(C)C)C(=O)N[C@@H](CCCNC(=N)N)C(=O)NCC(=O)N[C@@H](CCCNC(=N)N)C(=O)O [P-NT.II] (H-LGRVDIHVWDGVYIRGR-OH)
- IC50 ([4]; IC50 (mean±SD; n=3)): 4.91 ± 2.47 µM
- IC50 ([4]; IC50 ranging): 3.9 to 4.9 µM
- IC50 [5]: 23.9 ± 2.39 µM
- IC50 [6]: 5.3 µM
- IC50 [7]: 3.91 ± 1.67 µM

Compound: biotinylated-P-NT.II: P-NT.II labeled with biotin, 0.18 mol biotin bound to 1 mol of P-NT.II (LGRVDIHVWDGVYIRGR; also: labeled with biotin, 0.18 mol biotin per mol peptide, site not given here)
- ELISA reaction (β-bungarotoxin (Group I)): reacted positively
- ELISA reaction [8]: reacted positively
- ELISA reaction (crotoxin B (Group IIA)): reacted positively
- ELISA reaction (human recombinant cPLA2): reacted positively
- binding to cPLA2 relative to sPLA2s (human recombinant cPLA2): relatively much weaker
